Data from ChEMBL document CHEMBL3991601, “The target landscape of clinical kinase drugs” (Science, 2017).
The source made the active and inactive calls.

Experiments:
[1] = target: AP2-associated protein kinase 1 (Homo sapiens, UniProt Q2M2I8)
[2] = target: T1, Very long-chain specific acyl-CoA dehydrogenase, mitochondrial (Homo sapiens, UniProt P49748)
T1 sequence (P49748 whole entry): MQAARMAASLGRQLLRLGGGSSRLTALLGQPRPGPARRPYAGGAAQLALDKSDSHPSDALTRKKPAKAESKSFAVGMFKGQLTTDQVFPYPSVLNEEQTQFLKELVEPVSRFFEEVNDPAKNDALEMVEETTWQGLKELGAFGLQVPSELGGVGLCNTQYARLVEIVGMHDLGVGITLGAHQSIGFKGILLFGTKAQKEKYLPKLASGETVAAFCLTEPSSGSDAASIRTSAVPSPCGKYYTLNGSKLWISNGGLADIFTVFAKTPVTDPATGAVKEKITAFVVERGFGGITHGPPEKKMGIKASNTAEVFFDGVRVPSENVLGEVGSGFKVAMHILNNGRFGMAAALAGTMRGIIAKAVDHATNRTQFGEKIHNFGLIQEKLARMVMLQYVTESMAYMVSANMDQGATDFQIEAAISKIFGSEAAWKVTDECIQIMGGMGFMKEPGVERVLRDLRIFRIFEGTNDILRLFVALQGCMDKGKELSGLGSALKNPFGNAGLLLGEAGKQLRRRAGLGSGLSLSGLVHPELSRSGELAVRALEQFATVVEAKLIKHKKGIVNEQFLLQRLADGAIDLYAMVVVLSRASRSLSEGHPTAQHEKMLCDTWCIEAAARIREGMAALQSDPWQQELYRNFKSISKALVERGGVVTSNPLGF

Actin-related protein 2 = Actin-related protein 2 (Homo sapiens, UniProt P61160)
[3] = target: Mitotic checkpoint serine/threonine-protein kinase BUB1 (Homo sapiens, UniProt O43683)
[4] = target: T2, Cysteine--tRNA ligase, cytoplasmic (Homo sapiens, UniProt P49589)
T2 sequence (P49589 whole entry): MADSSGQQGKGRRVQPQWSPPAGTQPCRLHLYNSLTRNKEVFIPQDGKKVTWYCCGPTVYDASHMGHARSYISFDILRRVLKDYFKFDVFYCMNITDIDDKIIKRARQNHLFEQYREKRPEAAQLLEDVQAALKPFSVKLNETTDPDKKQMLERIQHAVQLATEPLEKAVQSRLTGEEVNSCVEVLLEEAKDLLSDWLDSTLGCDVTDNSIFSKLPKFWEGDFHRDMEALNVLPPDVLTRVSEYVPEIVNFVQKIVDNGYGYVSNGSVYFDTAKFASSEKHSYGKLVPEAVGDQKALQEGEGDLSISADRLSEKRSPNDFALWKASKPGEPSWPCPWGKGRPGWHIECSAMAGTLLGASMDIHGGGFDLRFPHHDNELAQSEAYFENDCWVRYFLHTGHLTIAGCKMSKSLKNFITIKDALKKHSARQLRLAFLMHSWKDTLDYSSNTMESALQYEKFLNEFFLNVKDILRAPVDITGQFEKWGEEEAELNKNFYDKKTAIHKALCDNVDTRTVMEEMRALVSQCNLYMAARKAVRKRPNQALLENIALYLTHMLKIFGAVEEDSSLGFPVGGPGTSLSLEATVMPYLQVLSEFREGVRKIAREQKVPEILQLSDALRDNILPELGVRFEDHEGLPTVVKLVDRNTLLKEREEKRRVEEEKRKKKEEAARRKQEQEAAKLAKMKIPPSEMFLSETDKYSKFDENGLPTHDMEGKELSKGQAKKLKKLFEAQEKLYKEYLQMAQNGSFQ

[5] = target: Maternal embryonic leucine zipper kinase (Homo sapiens, UniProt Q14680)
[6] = target: cAMP-dependent protein kinase type II-alpha regulatory subunit (Homo sapiens, UniProt P13861)
[7] = target: T3, Exosome RNA helicase MTR4 (Homo sapiens, UniProt P42285)
T3 sequence (P42285 whole entry): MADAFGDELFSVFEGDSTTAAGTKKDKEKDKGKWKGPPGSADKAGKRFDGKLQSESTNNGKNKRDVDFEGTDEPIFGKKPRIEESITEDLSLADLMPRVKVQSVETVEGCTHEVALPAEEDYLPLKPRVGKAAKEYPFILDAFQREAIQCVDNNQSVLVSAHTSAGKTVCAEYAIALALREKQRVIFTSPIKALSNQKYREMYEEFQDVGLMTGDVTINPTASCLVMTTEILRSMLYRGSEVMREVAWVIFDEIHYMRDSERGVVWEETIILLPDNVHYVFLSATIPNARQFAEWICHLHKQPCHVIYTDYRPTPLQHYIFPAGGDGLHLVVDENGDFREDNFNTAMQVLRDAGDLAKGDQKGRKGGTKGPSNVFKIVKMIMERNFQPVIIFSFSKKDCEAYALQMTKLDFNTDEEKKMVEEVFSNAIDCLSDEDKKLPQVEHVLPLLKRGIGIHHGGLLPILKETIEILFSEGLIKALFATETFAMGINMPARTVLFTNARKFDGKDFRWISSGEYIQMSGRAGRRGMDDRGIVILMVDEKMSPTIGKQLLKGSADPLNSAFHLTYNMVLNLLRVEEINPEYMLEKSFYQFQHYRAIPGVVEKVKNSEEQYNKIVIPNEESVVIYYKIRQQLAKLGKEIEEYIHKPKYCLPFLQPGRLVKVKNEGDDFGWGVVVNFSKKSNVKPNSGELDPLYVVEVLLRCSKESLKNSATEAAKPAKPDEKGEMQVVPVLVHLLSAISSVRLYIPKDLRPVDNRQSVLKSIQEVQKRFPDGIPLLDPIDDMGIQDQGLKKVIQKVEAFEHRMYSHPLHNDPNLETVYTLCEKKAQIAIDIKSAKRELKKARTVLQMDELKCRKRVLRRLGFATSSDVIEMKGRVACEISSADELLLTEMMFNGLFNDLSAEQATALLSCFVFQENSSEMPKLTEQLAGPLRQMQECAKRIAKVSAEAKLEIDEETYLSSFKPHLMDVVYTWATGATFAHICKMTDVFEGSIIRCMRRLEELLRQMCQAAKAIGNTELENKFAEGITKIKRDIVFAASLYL

[8] = target: Elongation factor Tu, mitochondrial (Homo sapiens, UniProt P49411)
[9] = target: Non-receptor tyrosine-protein kinase TYK2 (Homo sapiens, UniProt P29597)
Further: in the data inactive means no Kd found up to 30 µM.

Chain of cAMP-dependent protein kinase type II-alpha regulatory subunit (P13861 whole entry): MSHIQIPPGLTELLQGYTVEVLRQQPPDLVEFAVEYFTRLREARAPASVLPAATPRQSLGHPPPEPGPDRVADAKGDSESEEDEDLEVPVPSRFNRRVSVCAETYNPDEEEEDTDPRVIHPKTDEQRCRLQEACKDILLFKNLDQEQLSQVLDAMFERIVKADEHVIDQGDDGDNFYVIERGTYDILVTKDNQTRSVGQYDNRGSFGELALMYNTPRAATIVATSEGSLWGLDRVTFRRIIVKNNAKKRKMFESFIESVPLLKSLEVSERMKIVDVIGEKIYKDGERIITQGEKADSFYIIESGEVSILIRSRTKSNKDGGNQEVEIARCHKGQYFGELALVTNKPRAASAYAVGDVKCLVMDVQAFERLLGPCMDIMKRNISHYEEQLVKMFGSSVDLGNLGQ
Chain of AP2-associated protein kinase 1 (Q2M2I8 whole entry): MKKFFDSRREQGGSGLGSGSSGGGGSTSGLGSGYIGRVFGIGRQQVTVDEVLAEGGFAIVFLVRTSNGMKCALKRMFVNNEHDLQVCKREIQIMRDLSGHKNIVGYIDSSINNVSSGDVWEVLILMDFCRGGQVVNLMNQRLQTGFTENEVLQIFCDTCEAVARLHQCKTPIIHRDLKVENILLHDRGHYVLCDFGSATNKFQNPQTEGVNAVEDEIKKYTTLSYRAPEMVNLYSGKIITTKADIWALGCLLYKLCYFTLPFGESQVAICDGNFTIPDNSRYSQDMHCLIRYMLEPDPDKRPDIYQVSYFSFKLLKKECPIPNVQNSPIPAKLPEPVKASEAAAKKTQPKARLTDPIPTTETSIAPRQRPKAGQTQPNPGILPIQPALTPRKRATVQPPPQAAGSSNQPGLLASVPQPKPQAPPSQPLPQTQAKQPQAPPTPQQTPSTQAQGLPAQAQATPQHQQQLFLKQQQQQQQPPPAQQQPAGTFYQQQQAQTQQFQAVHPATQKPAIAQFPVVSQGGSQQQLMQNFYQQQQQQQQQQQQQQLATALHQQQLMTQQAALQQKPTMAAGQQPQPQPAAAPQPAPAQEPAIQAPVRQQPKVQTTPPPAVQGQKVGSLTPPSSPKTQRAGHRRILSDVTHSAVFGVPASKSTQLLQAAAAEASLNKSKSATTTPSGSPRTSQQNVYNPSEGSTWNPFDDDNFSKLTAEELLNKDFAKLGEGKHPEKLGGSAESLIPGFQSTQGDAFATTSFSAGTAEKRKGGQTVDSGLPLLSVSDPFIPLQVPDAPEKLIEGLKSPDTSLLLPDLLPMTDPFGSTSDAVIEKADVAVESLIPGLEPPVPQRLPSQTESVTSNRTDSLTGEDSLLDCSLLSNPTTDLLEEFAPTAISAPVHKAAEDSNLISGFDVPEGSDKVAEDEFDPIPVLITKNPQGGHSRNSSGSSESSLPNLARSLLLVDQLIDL
Chain of Maternal embryonic leucine zipper kinase (Q14680 whole entry): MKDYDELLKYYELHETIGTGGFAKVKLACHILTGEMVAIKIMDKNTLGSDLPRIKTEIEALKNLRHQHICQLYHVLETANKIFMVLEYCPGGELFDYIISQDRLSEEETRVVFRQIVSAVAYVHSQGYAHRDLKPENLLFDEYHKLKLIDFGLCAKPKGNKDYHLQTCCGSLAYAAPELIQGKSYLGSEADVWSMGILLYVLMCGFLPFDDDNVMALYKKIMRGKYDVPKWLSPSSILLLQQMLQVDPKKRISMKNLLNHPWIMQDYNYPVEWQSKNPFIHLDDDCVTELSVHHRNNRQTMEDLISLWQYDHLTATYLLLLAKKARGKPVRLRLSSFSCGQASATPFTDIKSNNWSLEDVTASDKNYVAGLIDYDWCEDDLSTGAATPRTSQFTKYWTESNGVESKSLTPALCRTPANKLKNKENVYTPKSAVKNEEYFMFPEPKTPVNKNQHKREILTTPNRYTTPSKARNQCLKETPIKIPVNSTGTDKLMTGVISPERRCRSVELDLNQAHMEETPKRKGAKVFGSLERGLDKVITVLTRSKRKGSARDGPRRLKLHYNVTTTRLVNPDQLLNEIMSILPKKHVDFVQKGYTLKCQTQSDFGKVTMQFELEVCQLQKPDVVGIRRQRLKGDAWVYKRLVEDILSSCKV
Chain of Mitotic checkpoint serine/threonine-protein kinase BUB1 (O43683 whole entry): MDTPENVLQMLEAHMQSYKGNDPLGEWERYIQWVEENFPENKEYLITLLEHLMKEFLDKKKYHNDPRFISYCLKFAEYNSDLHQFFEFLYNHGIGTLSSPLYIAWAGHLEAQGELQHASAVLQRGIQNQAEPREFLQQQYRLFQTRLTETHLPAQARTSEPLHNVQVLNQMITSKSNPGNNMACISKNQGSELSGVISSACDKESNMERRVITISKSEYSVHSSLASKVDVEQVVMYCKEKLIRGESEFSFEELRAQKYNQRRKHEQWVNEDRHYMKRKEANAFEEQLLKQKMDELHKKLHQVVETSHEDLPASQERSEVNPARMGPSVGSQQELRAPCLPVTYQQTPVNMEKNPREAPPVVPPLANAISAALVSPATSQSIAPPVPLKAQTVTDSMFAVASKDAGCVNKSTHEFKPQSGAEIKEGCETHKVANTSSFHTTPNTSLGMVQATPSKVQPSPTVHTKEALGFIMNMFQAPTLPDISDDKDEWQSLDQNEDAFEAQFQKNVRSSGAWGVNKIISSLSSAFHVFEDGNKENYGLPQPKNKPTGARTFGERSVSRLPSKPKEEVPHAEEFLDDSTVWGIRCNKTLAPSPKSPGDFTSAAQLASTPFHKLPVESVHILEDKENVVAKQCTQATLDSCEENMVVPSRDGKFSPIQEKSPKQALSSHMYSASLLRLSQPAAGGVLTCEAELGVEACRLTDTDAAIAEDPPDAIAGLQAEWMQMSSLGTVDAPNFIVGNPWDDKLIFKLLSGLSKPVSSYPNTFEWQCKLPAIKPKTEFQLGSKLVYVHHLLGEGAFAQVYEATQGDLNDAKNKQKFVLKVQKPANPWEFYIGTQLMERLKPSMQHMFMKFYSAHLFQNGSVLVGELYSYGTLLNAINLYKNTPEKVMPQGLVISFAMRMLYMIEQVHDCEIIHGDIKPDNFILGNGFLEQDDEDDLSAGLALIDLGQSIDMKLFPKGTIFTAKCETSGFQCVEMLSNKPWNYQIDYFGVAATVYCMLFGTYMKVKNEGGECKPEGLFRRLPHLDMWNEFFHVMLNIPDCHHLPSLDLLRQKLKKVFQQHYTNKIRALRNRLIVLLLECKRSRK
Chain of Non-receptor tyrosine-protein kinase TYK2 (P29597 whole entry): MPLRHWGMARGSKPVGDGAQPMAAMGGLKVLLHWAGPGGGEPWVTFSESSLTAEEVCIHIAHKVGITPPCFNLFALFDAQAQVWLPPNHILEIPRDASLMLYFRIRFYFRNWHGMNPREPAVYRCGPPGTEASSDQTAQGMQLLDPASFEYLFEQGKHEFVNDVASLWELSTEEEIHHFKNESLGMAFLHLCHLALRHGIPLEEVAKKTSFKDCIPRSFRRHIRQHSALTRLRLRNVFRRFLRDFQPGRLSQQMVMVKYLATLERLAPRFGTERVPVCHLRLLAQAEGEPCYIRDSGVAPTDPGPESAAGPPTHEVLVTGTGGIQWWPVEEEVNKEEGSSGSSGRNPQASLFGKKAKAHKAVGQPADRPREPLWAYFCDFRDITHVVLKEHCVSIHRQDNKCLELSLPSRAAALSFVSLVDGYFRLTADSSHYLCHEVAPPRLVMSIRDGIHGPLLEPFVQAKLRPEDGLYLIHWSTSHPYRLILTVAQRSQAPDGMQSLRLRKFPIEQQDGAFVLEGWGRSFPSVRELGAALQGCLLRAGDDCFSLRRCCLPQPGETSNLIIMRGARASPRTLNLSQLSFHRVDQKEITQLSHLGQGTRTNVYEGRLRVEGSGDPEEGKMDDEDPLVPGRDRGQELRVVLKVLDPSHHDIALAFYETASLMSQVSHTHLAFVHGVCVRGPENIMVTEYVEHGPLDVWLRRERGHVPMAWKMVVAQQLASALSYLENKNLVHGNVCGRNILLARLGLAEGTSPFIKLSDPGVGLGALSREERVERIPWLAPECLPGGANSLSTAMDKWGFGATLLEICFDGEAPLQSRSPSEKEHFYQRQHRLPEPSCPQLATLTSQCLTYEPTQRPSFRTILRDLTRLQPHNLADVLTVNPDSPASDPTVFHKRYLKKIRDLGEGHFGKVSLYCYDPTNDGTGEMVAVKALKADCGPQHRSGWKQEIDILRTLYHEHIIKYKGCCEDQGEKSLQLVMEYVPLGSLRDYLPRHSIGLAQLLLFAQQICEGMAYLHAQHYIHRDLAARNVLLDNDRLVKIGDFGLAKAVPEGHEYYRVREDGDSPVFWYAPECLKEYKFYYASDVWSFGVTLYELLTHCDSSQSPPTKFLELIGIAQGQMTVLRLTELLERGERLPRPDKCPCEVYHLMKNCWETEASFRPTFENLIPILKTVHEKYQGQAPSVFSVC

Kd [1]	Kd [2]	Kd (Actin-related protein 2)	Kd [3]	Kd [4]	Kd [5]	Kd [6]	Kd [7]	Kd [8]	Kd [9]	SMILES
> 30 µM (inactive)	> 30 µM (inactive)	> 30 µM (inactive)	> 30 µM (inactive)	> 30 µM (inactive)	> 30 µM (inactive)	> 30 µM (inactive)	> 30 µM (inactive)	> 30 µM (inactive)	> 30 µM (inactive)	COC(=O)N[C@@H](C)CNc1nccc(-c2cn(C(C)C)nc2-c2cc(Cl)cc(NS(C)(=O)=O)c2F)n1 [ENCORAFENIB]
> 30 µM (inactive)	> 30 µM (inactive)	> 30 µM (inactive)	> 30 µM (inactive)	> 30 µM (inactive)	> 30 µM (inactive)	> 30 µM (inactive)	> 30 µM (inactive)	> 30 µM (inactive)	> 30 µM (inactive)	CCCS(=O)(=O)Nc1ccc(F)c(C(=O)c2c[nH]c3ncc(-c4ccc(Cl)cc4)cc23)c1F [VEMURAFENIB]
> 30 µM (inactive)	> 30 µM (inactive)	> 30 µM (inactive)	> 30 µM (inactive)	> 30 µM (inactive)	> 30 µM (inactive)	> 30 µM (inactive)	> 30 µM (inactive)	> 30 µM (inactive)	> 30 µM (inactive)	CCN1CCN(Cc2ccc(-c3cc4c(N[C@H](C)c5ccccc5)ncnc4[nH]3)cc2)CC1 [AEE-788]
> 30 µM (inactive)	> 30 µM (inactive)	> 30 µM (inactive)	> 30 µM (inactive)	> 30 µM (inactive)	> 30 µM (inactive)	> 30 µM (inactive)	> 30 µM (inactive)	> 30 µM (inactive)	> 30 µM (inactive)	CC[C@H](Nc1ncnc2[nH]cnc12)c1nc2cccc(F)c2c(=O)n1-c1ccccc1 [IDELALISIB]
> 30 µM (inactive)	> 30 µM (inactive)	> 30 µM (inactive)	> 30 µM (inactive)	> 30 µM (inactive)	> 30 µM (inactive)	> 30 µM (inactive)	> 30 µM (inactive)	> 30 µM (inactive)	> 30 µM (inactive)	CNS(=O)(=O)Nc1nccc(Cc2c(C)c3ccc(Oc4ncccn4)cc3oc2=O)c1F [AVUTOMETINIB]
> 30 µM (inactive)	> 30 µM (inactive)	–	> 30 µM (inactive)	> 30 µM (inactive)	> 30 µM (inactive)	> 30 µM (inactive)	> 30 µM (inactive)	> 30 µM (inactive)	> 30 µM (inactive)	CNC(=O)c1ccc(-c2cnc3ncc(Cc4ccc5ncccc5c4)n3n2)cc1F [CAPMATINIB]
> 30 µM (inactive)	> 30 µM (inactive)	> 30 µM (inactive)	> 30 µM (inactive)	> 30 µM (inactive)	> 30 µM (inactive)	–	> 30 µM (inactive)	> 30 µM (inactive)	> 30 µM (inactive)	Cc1ccc(S(=O)(=O)Nc2nc3ccccc3nc2Nc2ccc3nsnc3c2)cc1
0.046 µM (active)	> 30 µM (inactive)	> 30 µM (inactive)	–	> 30 µM (inactive)	> 30 µM (inactive)	> 30 µM (inactive)	> 30 µM (inactive)	> 30 µM (inactive)	> 30 µM (inactive)	CCS(=O)(=O)N1CC(CC#N)(n2cc(-c3ncnc4[nH]ccc34)cn2)C1 [BARICITINIB]
> 30 µM (inactive)	> 30 µM (inactive)	> 30 µM (inactive)	–	> 30 µM (inactive)	> 30 µM (inactive)	> 30 µM (inactive)	> 30 µM (inactive)	> 30 µM (inactive)	> 30 µM (inactive)	C[C@@H](c1ccc2nccn2c1)n1nnc2ncc(-c3cnn(C)c3)nc21 [SAVOLITINIB]
> 30 µM (inactive)	> 30 µM (inactive)	> 30 µM (inactive)	> 30 µM (inactive)	> 30 µM (inactive)	> 30 µM (inactive)	–	> 30 µM (inactive)	> 30 µM (inactive)	> 30 µM (inactive)	CN(C)C(=O)c1cc2cnc(Nc3ccc(N4CCNCC4)cn3)nc2n1C1CCCC1 [RIBOCICLIB]

SMILES	Kd [1]	Kd [2]	Kd (Actin-related protein 2)	Kd [3]	Kd [4]	Kd [5]	Kd [6]	Kd [7]	Kd [8]	Kd [9]
Cc1cc(-c2cc(O)ccc2Cl)cc2nnc(Nc3ccc(OCCN4CCCC4)cc3)nc12	> 30 µM (inactive)	> 30 µM (inactive)	> 30 µM (inactive)	> 30 µM (inactive)	> 30 µM (inactive)	> 30 µM (inactive)	> 30 µM (inactive)	> 30 µM (inactive)	> 30 µM (inactive)	0.0007 µM (active)
O=C(Nc1cccc(Cl)c1)Nc1ncc(CCNc2ncnc3ccsc23)s1 [SNS-314]	> 30 µM (inactive)	> 30 µM (inactive)	> 30 µM (inactive)	–	> 30 µM (inactive)	–	> 30 µM (inactive)	> 30 µM (inactive)	> 30 µM (inactive)	–
CN1CCC(COc2cnc(-c3cccc(Cn4nc(-c5cccc(C#N)c5)ccc4=O)c3)nc2)CC1 [TEPOTINIB]	> 30 µM (inactive)	> 30 µM (inactive)	> 30 µM (inactive)	> 30 µM (inactive)	> 30 µM (inactive)	> 30 µM (inactive)	> 30 µM (inactive)	> 30 µM (inactive)	> 30 µM (inactive)	–
O=C(c1ccc(F)c(F)c1Nc1ccc(I)cc1F)N1CC(O)([C@@H]2CCCCN2)C1 [COBIMETINIB]	> 30 µM (inactive)	> 30 µM (inactive)	–	> 30 µM (inactive)	> 30 µM (inactive)	> 30 µM (inactive)	> 30 µM (inactive)	> 30 µM (inactive)	> 30 µM (inactive)	> 30 µM (inactive)
Cc1ccc(-n2nc(C(C)(C)C)cc2NC(=O)NCc2cc(F)ccc2Oc2ccc3c(cnn3CCO)c2)cc1 [PEXMETINIB]	> 30 µM (inactive)	> 30 µM (inactive)	> 30 µM (inactive)	> 30 µM (inactive)	> 30 µM (inactive)	> 30 µM (inactive)	–	> 30 µM (inactive)	> 30 µM (inactive)	> 30 µM (inactive)
